Values joined by “and” are separate entries in the source; they are usually repeats but may differ in a detail not shown here. Identical values can stand only once.
Assays:
[1] = system: jugular vein patch graft (neointimal hyperplasia); assay: murine autologous arterialized vein patch model: neointimal expansion of vein grafts; assay type: in vivo, C57BL/6J mice; conditions: vein patch preserved 2 hours at 25° C. in heparinized saline with additive (db-cAMP 2 mmol/L; 8-Br-cAMP 0.1 mmol/L; Rp-cAMPS 0.25 mmol/L), harvested postoperative day 21; mean ±SEM
[2] = system: macrophages on the intima of porcine venous graft; assay: porcine vein graft model: macrophages on/in intima (anti-macrophage immunoperoxidase); assay type: in vivo; conditions: for A.Average Number of Macrophages on/in Intima* (400X objective) MAC-1 Staining, Left IJV Experimental: graft incubated 60 minutes in test solution before implantation, one animal per line
Method: (§1) 6.4 The following experiments were performed to determine the ability of various compounds to preserve vein grafts before implantation in a porcine vein graft model. Briefly, the vein grafts were excised from the pig, incubated in solutions containing the various test compounds, implanted back into the pig and excised after a set period of days. The excised veins were then examined for a variety of factors to determine the protective effect of the various compounds.
Anti-macrophage antibody: An indirect immunoperoxidase procedure was performed. Slides were treated with Declere antigen retrieval solution for 15 minutes followed by one rinse in phosphate-buffered saline (PBS) ([0.15M NaCl, pH 7.2]+0.05% Tween 20). Endogenous peroxidase activity was quenched by incubation with the peroxidase solution supplied in the Dako EnVision+ kit followed by two rinses in PBS (0.15M NaCl, pH 7.2)+0.05% Tween 20. The slides were then incubated for 20 minutes in a nonspecific protein block solution comprising 1% BSA and 1.5% normal goat serum in PBS (0.15M NaCl, pH 7.2)+0.05% Tween 20 followed by incubation with primary antibody for 1 hour. After two PBS (0.15M NaCl, pH 7.2)+0.05% Tween 20 rinses, the slides were treated with the Dako EnVision+ peroxidase labeled polymer for 30 minutes. The slides were rinsed twice with PBS (0.15M NaCl, pH 7.2)+0.05% Tween 20 and treated with Dako substrate-chromogen solution for 8 minutes. The slides were then rinsed in tap water, counterstained with hematoxylin, and blued with lithium chloride. Finally, the slides were dehydrated in increasing concentrations of alcohol, cleared with xylene, and mounted for interpretation. PBS (0.15M NaCl, pH 7.2)+0.05% Tween 20+1% BSA served as the diluent for all antibodies. All rinses were performed with PBS (0.15M NaCl, pH 7.2) supplemented with 0.05% Tween 20.
For the anti-macrophage antibody, all slides were judged for adequacy of tissue elements and staining and read blind by the Study Pathologist to quantify the number of macrophages on the intima of the porcine venous graft tissues. The quantification was performed by counting at 400× the number of positively stained macrophages in and on the intima of each section of venous graft tissue in 10 fields and then taking the average number of macrophages per field for each section. A mean score among the four venous graft sections for each test group was calculated.
(§2) This study tested the ability of a variety of preservation solutions to retard chronic intimal hyperplasia and protect vein grafts from restenosis and obstruction in a porcine interpositional graft model. The markers of inflammation of interest in this study were CD31 (PECAM-1), CD54 (ICAM-1), and macrophages (L1 or Calprotectin) in formalin-fixed, paraffin-embedded porcine venous graft tissues. Specifically, a porcine internal jugular vein was end to side anastamosed to the ipsilateral carotid artery, following 60 minutes of incubation in heparinized saline (negative control), Phorbol Myristate Acetate (PMA) as positive control, or experimental solutions. In addition to the detection of macrophages with either L1 or Calprotectin antibodies, anti-CD31 was used to detect endothelial cells, and Movat's Trichrome stain, together with biomorphometry was used to measure the percent of intimal expansion. For detection of CD31, an anti-CD31 antibody was applied to formalin-fixed, paraffin-embedded porcine spleen at one dilution (1:50). This dilution of anti-CD-31 antibody had strong to intense staining of splenic endothelium (positive control material). In order to detect CD54, mouse antihuman CD54 antibody was applied at one concentration (50 μg/mL) to ICAM-1/CD54 ultraviolet light (UV) activated resin spot slides. There was strong to intense staining of the ICAM-1/CD54 UV activated resin spot slides with 50 μg/mL of anti-CD54 antibody. […]

[3] = system: endothelium (CD31) of porcine venous graft; assay: porcine vein graft model: endothelialization score (CD31 staining); assay type: in vivo; conditions: for endothelialization of treated venous graft compared to control contralateral venous graft: in words, based on slightly higher endothelialization scores; for B.Endothelialization Score CD31 Staining, Left IJV Experimental: mean score on 0-5 scale, graft incubated 60 minutes in test solution before implantation, one animal per line
Method: as §1
Anti-CD31 antibody: An indirect immunoperoxidase procedure was performed. Slides were treated with Declere antigen retrieval solution for 15 minutes followed by two rinses in phosphate-buffered saline (PBS [0.15M NaCl, pH 7.2]+0.05% Tween 20). The slides were then treated with 3% hydrogen peroxide to block endogenous peroxidase activity. After two PBS (0.15M NaCl, pH 7.2)+0.05% Tween 20 rinses, the slides were incubated for 20 minutes in a nonspecific protein block comprising 1% BSA, 1.5% normal horse serum, and 5% milk in PBS (0.15M NaCl, pH 7.2)+0.05% Tween 20. The slides were then incubated with primary antibody for 2 hours at 37° C. followed by two PBS (0.15M NaCl, pH 7.2)+0.05% Tween 20 rinses. The biotinylated secondary antibody was then added and incubated for 30 minutes. After two rinses in PBS (0.15M NaCl, pH 7.2)+0.05% Tween 20, the slides were treated with ABC reagent for 30 minutes followed by two PBS (0.15M NaCl, pH 7.2)+0.05% Tween 20 rinses. The slides were incubated with stable DAB substrate for 6 minutes, rinsed in tap water, counterstained with hematoxylin, and blued with lithium chloride. Finally, all slides were dehydrated in increasing concentrations of alcohol, cleared with xylene, and mounted for interpretation. PBS (0.15M NaCl, pH 7.2)+0.05% Tween 20+1% BSA served as the diluent for the primary antibody and ABC reagent. The diluent for the secondary antibody also contained 1% milk. All rinses were performed with PBS (0.15M NaCl, pH 7.2) supplemented with 0.05% Tween 20.
For the anti-CD31 antibody, all slides were judged for adequacy of tissue elements and staining and read blind by the Study Pathologist to quantify the degree of endothelialization of each section of venous graft tissue using the following scale: 0=no endothelialization, 1=less than 25% endothelialization, 2=25-50% endothelialization, 3=51-75% endothelialization, 4=greater than 75% endothelialization, 5=complete endothelialization. A mean score among the four venous graft sections for each test group was calculated.
as §2

[4] = system: porcine venous graft (intimal hyperplasia); assay: porcine vein graft model: % neointimal expansion (histomorphometry, Movat's stain); assay type: in vivo; conditions: for C.% Neointimal Expansion Movat's Trichrome [100 * (neointima area/neointima area + lumen area], Left IJV Experimental: graft incubated 60 minutes in test solution before implantation, one animal per line; for % neointimal expansion (% NE) compared to contralateral venous graft and heparinized saline negative control: in words
Method: as §1
All slides were also stained with hematoxylin and eosin (H&E) and Movat's Pentachrome stains in preparation for histomorphometry. Calculations based on morphometry measurements were made using Microsoft Excel® software. For histomorphometry, neointimal area, luminal area, and percentage of neointimal expansion (100×[neointimal area/neointimal area+luminal area) was calculated for each venous graft section and the mean for each vessel were calculated.
This study tested the ability of a variety of preservation solutions to retard chronic intimal hyperplasia and protect vein grafts from restenosis and obstruction in a porcine interpositional graft model. The markers of inflammation of interest in this study were CD31 (PECAM-1), CD54 (ICAM-1), and macrophages (L1 or Calprotectin) in formalin-fixed, paraffin-embedded porcine venous graft tissues. Specifically, a porcine internal jugular vein was end to side anastamosed to the ipsilateral carotid artery, following 60 minutes of incubation in heparinized saline (negative control), Phorbol Myristate Acetate (PMA) as positive control, or experimental solutions. In addition to the detection of macrophages with either L1 or Calprotectin antibodies, anti-CD31 was used to detect endothelial cells, and Movat's Trichrome stain, together with biomorphometry was used to measure the percent of intimal expansion. For detection of CD31, an anti-CD31 antibody was applied to formalin-fixed, paraffin-embedded porcine spleen at one dilution (1:50). This dilution of anti-CD-31 antibody had strong to intense staining of splenic endothelium (positive control material). In order to detect CD54, mouse antihuman CD54 antibody was applied at one concentration (50 μg/mL) to ICAM-1/CD54 ultraviolet light (UV) activated resin spot slides. There was strong to intense staining of the ICAM-1/CD54 UV activated resin spot slides with 50 μg/mL of anti-CD54 antibody. The detection of macrophages was performed by the application of one concentration (2 μg/mL) of mouse anti-human macrophages antibody to formalin-fixed, paraffin embedded porcine spleen. There was moderate staining of macrophages with 2 μg/mL of anti-macrophages antibody. […] All slides were also stained with hematoxylin and eosin (H&E) and Movat's Pentachrome stains in preparation for histomorphometry.

porcine venous graft = assay: porcine vein graft model: graft occlusion at explant; assay type: in vivo; set-up: key: SO = substantially occluded; conditions: graft incubated 60 minutes in test solution before implantation; one animal per line
Method: as §1
This study tested the ability of a variety of preservation solutions to retard chronic intimal hyperplasia and protect vein grafts from restenosis and obstruction in a porcine interpositional graft model. The markers of inflammation of interest in this study were CD31 (PECAM-1), CD54 (ICAM-1), and macrophages (L1 or Calprotectin) in formalin-fixed, paraffin-embedded porcine venous graft tissues. Specifically, a porcine internal jugular vein was end to side anastamosed to the ipsilateral carotid artery, following 60 minutes of incubation in heparinized saline (negative control), Phorbol Myristate Acetate (PMA) as positive control, or experimental solutions. In addition to the detection of macrophages with either L1 or Calprotectin antibodies, anti-CD31 was used to detect endothelial cells, and Movat's Trichrome stain, together with biomorphometry was used to measure the percent of intimal expansion. […]

[5] = system: MAC-1+ leukocytes adhering to the endothelium of the vein patch; assay: en face immunofluorescence: MAC-1+ leukocyte adhesion to vein patch; assay type: in vivo, C57BL/6J mice; conditions: 2 hours of preservation with db-cAMP vs without additive; 24 hours after operation; P<0.05
endothelial cells = conditions: stated as known; cited from earlier work

| Compound | neointimal expansion [1] | A.Average Number of Macrophages on/in Intima* (400X objective) MAC-1 Staining, Left IJV Experimental [2] | endothelialization of treated venous graft compared to control contralateral venous graft [3] | B.Endothelialization Score CD31 Staining, Left IJV Experimental [3] | C.% Neointimal Expansion Movat's Trichrome [100 * (neointima area/neointima area + lumen area], Left IJV Experimental [4] | graft status printed in place of a value (Left IJV Experimental) (porcine venous graft) | % neointimal expansion (% NE) compared to contralateral venous graft and heparinized saline negative control [4] | MAC-1+ cells adhered to the surface of vein patch [5] | macrophage scores of treated venous graft compared to contralateral venous graft ([2]; in words) | db cAMP concentrations that become toxic to endothelial cells (endothelial cells) |
| --- | --- | --- | --- | --- | --- | --- | --- | --- | --- | --- |
| Nc1ncnc2c1nc(Br)n2[C@@H]1O[C@@H]2COP(=O)(O)O[C@H]2[C@H]1O [8-Br-cAMP, 8-bromo-adenosine 3′,5′-cyclic monophosphate] | 44.3%±5.0% | – | – | – | – | – | – | – | – | – |
| Cc1[nH]c(=O)c(C#N)cc1-c1ccncc1 [Milrinone (PDSIII), Milrinone] | – | 0 | better endothelialization | 5 | 70.4% | SO | – | – | – | – |
| CCCCCCCCCCCCCC(=O)O[C@@H]1[C@@H](C)[C@@]2(O)[C@@H](C=C(CO)C[C@]3(O)C(=O)C(C)=C[C@@H]23)[C@@H]2C(C)(C)[C@]12OC(C)=O [PMA, Phorbol Myristate Acetate] | – | 0 and 3.55 | – | 4.5 and 5 | 78.9% and 78.8% | – | slight increase | – | – | – |
| O=C1CCC(N2C(=O)c3ccccc3C2=O)C(=O)N1 (centres unmarked) [Thalidomide] | – | 1.15 and 1.45 | – | 4.75 and 4.5 | 78.2% and 80.0% | – | – | – | – | – |
| CCCC(=O)Nc1ncnc2c1ncn2[C@@H]1O[C@@H]2COP(=O)(O)O[C@H]2[C@H]1OC(=O)CCC [db-cAMP, N^6,2′-O-dibutyryl adenosine 3′,5′-cyclic monophosphate] | 51.0%±4.7% | 0.025 | better endothelialization | 5 | 55.6% | – | large and significant increase | markedly decreased | decreases | higher than 4 mM |
| Enbrel | – | – | – | – | – | SO | – | – | – | – |
| Lipopolysaccaride | – | 1.575 | – | 4.75 | 77.7% | – | – | – | – | – |

From patent US20060134073A1, “Compositions and methods for ex vivo preservation of blood vessels for vascular grafts using analogues of cAMP and cGMP” (priority 2004, published 2006)
